Source: US9606106B2, “NMR-based metabolite screening platform” (THE CHILDREN'S MEDICAL CENTER CORPORATION, priority 2012, dated 2017)

Test system: BPLER cells
Test: cell migration assay (dual-chamber with small pores)
Format: cell-based, human
Details: cells transfected with siRNAs against NANS or CMAS, supplemented with NANA
Method: However, NANA is incorporated on the cell surface of several proteins involved in cell adhesion, and loss of NANA was suspected to affect cell motility. Using a cell migration assay, cells were cultured in a dual-chamber containing small pores at the bottom of the top chamber, malignant cells (especially those with metastatic potential) are able to migrate through the pores and form colonies. As expected, shown in FIG. 12 BPLER have an increased migration rate as compared to HMLER cells due to their increased turmorigenic properties. […] To confirm NANA expression directly influences motility, a rescue experiment was performed in which cells transfected with siRNAs against NANS or CMAS were supplemented NANA. […] Monitoring NANA expression could predict the metastatic potential of a cell. In addition both NANS/CMAS are novel key targets to manipulate migration and metastasis.

SMILES: CC(=O)N[C@H]1[C@H]([C@H](O)[C@H](O)CO)OC(O)(C(=O)O)C[C@@H]1O (stereo partly shown) [NANA, N-acetylneuraminic acid]
- rescue of migration phenotype: partially restore
